12 molecules from patent publication US20250143306A1, “COMBINATION FOR IMPROVING PLANT GROWTH AND/OR YIELD, FORMULATION AND METHOD FOR INCREASING PLANT GROWTH, STRESS RESISTANCE, AND YIELDS, AND USE THEREOF” (INSTITUTE OF EXPERIMENTAL BOTANY CAS CR, V.V.I., priority 2022, published 2025) can be followed below.

Experiment [1] relates to wheat (Triticum aestivum) cv. Balitus. Nature of the experiment: Root and shoot dry weight and leaf nitrogen content of hydroponically grown wheat under optimal conditions (Example 1). It counts as in vivo. On the procedure:
To investigate the effect of the combinations on the weight parameters, the seeds of wheat (Triticum aestivum) cv. Balitus were sown in a hydroponic growing system (Araponics, Liege, Belgium) using Hoagland's solution (control). Twenty days after sowing, plants (except for control plants) were sprayed by aqueous solution of either MTU (10 μM) or by a nitrogen utilization enhancer alone or by a combination of MTU (10 μM) with the nitrogen utilization enhancer. The plants were grown in the Czech Republic in a glasshouse at 16-25° C. under natural and artificial light during the winter period. The root dry weight (RDW), shoot dry weight (SDW) and the nitrogen content in the leaves of at least 30 plants were measured 45 days after the plants had been sown. RDW and SDW were recorded after drying the plants at 70° C. for 2 days.

For experiment [2] the test system is unchanged. Put plainly: Root and shoot dry weight and total chlorophyll content of wheat under drought stress conditions (Example 2). It counts as in vivo. How it is done:
To investigate the effect of the combinations on the weight parameters, and the total content of chlorophyll, seeds of wheat (Triticum aestivum) cv. Balitus were sown in a hydroponic growing system (Araponics, Liege, Belgium) using Hoagland's solution (control). Twenty days after sowing plants (except for control plants) were sprayed by either MTU (10 μM) or by nitrogen utilization enhancers alone or with a combination of MTU (10 μM) and nitrogen utilization enhancers. The plants were grown in a glasshouse at 20-28° C. under a combination of natural and artificial light. Since the treatment (20 days after sowing), the plants received low water doses. […] The root dry weight (RDW), shoot dry weight (SDW), and total chlorophyll content (TCC) of at least 25 plants were measured at the end of the experiment—45 days after the plants had been sown. RDW and SDW were recorded after drying the plants at 70° C. for 2 days. The chlorophyll content of each plant was measured by SPAD meter reading at the end of the experiment and TCC was calculated as SPAD value per SDW.

For `O=C(O)CCC(=O)C(=O)O` [2-oxoglutarate], in experiment [1] (concentration 100 mg/L), the “RDW % of control” value is listed as “+8.8%”, the “RDW (root dry weight)” value was 0.87 g, the “SDW % of control” value is given as “+5.3%” and the “SDW (shoot dry weight)” value is listed as 1.60 g. Moreover, in experiment [1] (concentration 250 mg/L), the “Nitrogen content in the leaves” value amounted to 4.67 weight %, the “RDW % of control” value is “+13.8%”, the “RDW (root dry weight)” value is 0.91 g and the “SDW % of control” value is “+8.6%”. In addition, the “SDW (shoot dry weight)” value in experiment [1] (concentration 250 mg/L) was 1.65 g. In experiment [2] (concentration 100 mg/L), the “RDW % of control” value is on record as “+11.9%”, the “RDW (root dry weight)” value turned out to be 0.75 g, the “SDW % of control” value is on record as “+10.7%” and the “SDW (shoot dry weight)” value was determined as 1.35 g. Besides, the “TCC % (total chlorophyll content)” value in experiment [2] (concentration 100 mg/L) stood at 107%. In experiment [2] (concentration 250 mg/L), the “RDW % of control” value is recorded as “+16.4%”, the “RDW (root dry weight)” value is given as 0.78 g, the “SDW % of control” value is recorded as “+14.8%” and the “SDW (shoot dry weight)” value came to 1.4 g. The “TCC % (total chlorophyll content)” value in experiment [2] (concentration 250 mg/L) amounted to 112%.
As to `N[C@@H](CC(=O)O)C(=O)O` [Aspartic acid, aspartic acid], in experiment [1] (concentration 250 mg/L), the “Nitrogen content in the leaves” value is 4.53 weight %, the “RDW % of control” value is “+15.0%”, the “RDW (root dry weight)” value worked out at 0.92 g and the “SDW % of control” value is on record as −1.3%. In experiment [1] (concentration 250 mg/L), the “SDW (shoot dry weight)” value came to 1.50 g. Besides, in experiment [2] (concentration 250 mg/L), the “RDW % of control” value was “+14.9%”, the “RDW (root dry weight)” value is reported as 0.77 g, the “SDW % of control” value is on record as “+3.3%” and the “SDW (shoot dry weight)” value is reported as 1.26 g.
Regarding `CCCCCC(=O)OCCN(CC)CC` [DA6, diethyl aminoethyl hexanoate], in experiment [1] (concentration 25 mg/L), the “Nitrogen content in the leaves” value came out at 4.53 weight %, the “RDW % of control” value is “+8.8%”, the “RDW (root dry weight)” value was found to be 0.87 g and the “SDW % of control” value is given as “+5.9%”. In experiment [1] (concentration 25 mg/L), the “SDW (shoot dry weight)” value is recorded as 1.61 g. Also, in experiment [2] (concentration 20 mg/L), the “RDW % of control” value is “+13.4%”, the “RDW (root dry weight)” value stood at 0.76 g, the “SDW % of control” value was “+6.6%” and the “SDW (shoot dry weight)” value was determined as 1.3 g. Besides, in experiment [2] (concentration 20 mg/L), the “TCC % (total chlorophyll content)” value was 110%.
Take `NCCCC(=O)O` [GABA, γ-aminobutyric acid]: in experiment [1] (concentration 200 mg/L), the “Nitrogen content in the leaves” value came out at 4.82 weight %, the “RDW % of control” value is listed as “+5.0%”, the “RDW (root dry weight)” value stood at 0.84 g and the “SDW % of control” value is on record as “+4.6%”. Also, the “SDW (shoot dry weight)” value in experiment [1] (concentration 200 mg/L) was found to be 1.59 g.
Regarding `N[C@@H](CCC(=O)O)C(=O)O` [Glutamic acid, glutamic acid], in experiment [1] (concentration 100 mg/L), the “RDW % of control” value is reported as “+6.3%”, the “RDW (root dry weight)” value is reported as 0.85 g, the “SDW % of control” value was “+2.0%” and the “SDW (shoot dry weight)” value amounted to 1.55 g. For the same molecule, in experiment [1] (concentration 250 mg/L), the “Nitrogen content in the leaves” value stood at 4.56 weight %, the “RDW % of control” value is on record as “+15.0%”, the “RDW (root dry weight)” value amounted to 0.92 g and the “SDW % of control” value is reported as “+3.9%”. Moreover, the “SDW (shoot dry weight)” value in experiment [1] (concentration 250 mg/L) was 1.58 g. In experiment [2] (concentration 100 mg/L), the “RDW % of control” value is “+9.0%”, the “RDW (root dry weight)” value is on record as 0.73 g, the “SDW % of control” value is on record as “+4.1%” and the “SDW (shoot dry weight)” value is on record as 1.27 g. Moreover, in experiment [2] (concentration 250 mg/L), the “RDW % of control” value is “+19.4%”, the “RDW (root dry weight)” value is reported as 0.8 g, the “SDW % of control” value is on record as “+3.3%” and the “SDW (shoot dry weight)” value was found to be 1.26 g.
Turning to `C[N+](C)(C)CC(=O)[O-]` [Glycine betaine, glycine betaine], in experiment [2] (concentration 5 g/L), the “RDW % of control” value is “+4.5%”, the “RDW (root dry weight)” value stood at 0.70 g, the “SDW % of control” value is on record as “+7.4%” and the “SDW (shoot dry weight)” value came out at 1.31 g. For the same molecule, in experiment [2] (concentration 5 g/L), the “TCC % (total chlorophyll content)” value is on record as 110%.
For `CC(=O)N1CSCC1C(=O)O` (centres unmarked) [NATCA, N-acetyl thiazolidine 4-carboxylic acid], in experiment [1] (concentration 100 mg/L), the “Nitrogen content in the leaves” value amounted to 4.77 weight %, the “RDW % of control” value is “+12.5%”, the “RDW (root dry weight)” value is reported as 0.9 g and the “SDW % of control” value is “+7.2%”. In addition, in experiment [1] (concentration 100 mg/L), the “SDW (shoot dry weight)” value is recorded as 1.63 g. In experiment [2] (concentration 100 mg/L), the “RDW % of control” value was “+11.9%”, the “RDW (root dry weight)” value was found to be 0.75 g, the “SDW % of control” value was “+9.8%” and the “SDW (shoot dry weight)” value stood at 1.34 g.
Take `O=C(O)[C@@H]1CCCN1` [Proline, proline]: in experiment [1] (concentration 250 mg/L), the “Nitrogen content in the leaves” value came to 4.69 weight %, the “RDW % of control” value is listed as “+7.5%”, the “RDW (root dry weight)” value is reported as 0.86 g and the “SDW % of control” value is reported as “+3.3%”. Moreover, the “SDW (shoot dry weight)” value in experiment [1] (concentration 250 mg/L) was 1.57 g. In addition, in experiment [2] (concentration 250 mg/L), the “RDW % of control” value is on record as “+7.5%”, the “RDW (root dry weight)” value came to 0.72 g, the “SDW % of control” value is recorded as “+4.9%” and the “SDW (shoot dry weight)” value was 1.28 g.
`OP(O)O` [[PO3]^3−, phosphite]: in experiment [1] (concentration 600 mg/L), the “Nitrogen content in the leaves” value worked out at 4.81 weight %, the “RDW % of control” value is “+18.8%”, the “RDW (root dry weight)” value was 0.95 g and the “SDW % of control” value is listed as “+14.5%”. Moreover, the “SDW (shoot dry weight)” value in experiment [1] (concentration 600 mg/L) amounted to 1.74 g. Further, in experiment [2] (concentration 600 mg/L), the “RDW % of control” value is “+16.4%”, the “RDW (root dry weight)” value came out at 0.78 g, the “SDW % of control” value is recorded as “+8.2%” and the “SDW (shoot dry weight)” value stood at 1.32 g. Besides, in experiment [2] (concentration 600 mg/L), the “TCC % (total chlorophyll content)” value stood at 105%.
As to `NC(=O)CC[C@H](N)C(=O)O` [glutamine], in experiment [1] (concentration 100 mg/L), the “RDW % of control” value is listed as “+10.0%”, the “RDW (root dry weight)” value stood at 0.88 g, the “SDW % of control” value was “+5.3%” and the “SDW (shoot dry weight)” value was found to be 1.60 g. Moreover, in experiment [1] (concentration 250 mg/L), the “Nitrogen content in the leaves” value amounted to 4.59 weight %, the “RDW % of control” value was “+12.5%”, the “RDW (root dry weight)” value is 0.90 g and the “SDW % of control” value is on record as “+6.6%”. Further, in experiment [1] (concentration 250 mg/L), the “SDW (shoot dry weight)” value is on record as 1.62 g. For the same molecule, in experiment [2] (concentration 100 mg/L), the “RDW % of control” value was “+10.4%”, the “RDW (root dry weight)” value is listed as 0.74 g, the “SDW % of control” value was “+7.4%” and the “SDW (shoot dry weight)” value was 1.31 g. Besides, in experiment [2] (concentration 250 mg/L), the “RDW % of control” value is recorded as “+16.4%”, the “RDW (root dry weight)” value is 0.78 g, the “SDW % of control” value was “+11.5%” and the “SDW (shoot dry weight)” value was determined as 1.36 g.
`NCC(=O)O` [glycine]: in experiment [1] (concentration 100 mg/L), the “RDW % of control” value was “+5.0%”, the “RDW (root dry weight)” value worked out at 0.84 g, the “SDW % of control” value is “+5.9%” and the “SDW (shoot dry weight)” value was determined as 1.61 g. Also, in experiment [1] (concentration 250 mg/L), the “Nitrogen content in the leaves” value came to 4.64 weight %, the “RDW % of control” value is listed as “+7.5%”, the “RDW (root dry weight)” value worked out at 0.86 g and the “SDW % of control” value is recorded as “+8.6%”. For the same molecule, in experiment [1] (concentration 250 mg/L), the “SDW (shoot dry weight)” value was found to be 1.65 g. In experiment [2] (concentration 100 mg/L), the “RDW % of control” value was “+7.5%”, the “RDW (root dry weight)” value stood at 0.72 g, the “SDW % of control” value was “+5.7%” and the “SDW (shoot dry weight)” value was found to be 1.29 g. Also, in experiment [2] (concentration 250 mg/L), the “RDW % of control” value is “+13.4%”, the “RDW (root dry weight)” value is 0.76 g, the “SDW % of control” value is listed as “+11.5%” and the “SDW (shoot dry weight)” value is listed as 1.36 g.
On to poly-γ-(glutamic acid) [γ-PGA], for which, in experiment [1] (concentration 250 mg/L), the “Nitrogen content in the leaves” value amounted to 4.74 weight %, the “RDW % of control” value was “+5.0%”, the “RDW (root dry weight)” value is 0.84 g and the “SDW % of control” value was “+6.6%”. In addition, the “SDW (shoot dry weight)” value in experiment [1] (concentration 250 mg/L) is reported as 1.62 g. Also, in experiment [2] (concentration 250 mg/L), the “RDW % of control” value is on record as “+9.0%”, the “RDW (root dry weight)” value came out at 0.73 g, the “SDW % of control” value is on record as “+2.5%” and the “SDW (shoot dry weight)” value is listed as 1.25 g. The “TCC % (total chlorophyll content)” value in experiment [2] (concentration 250 mg/L) amounted to 112%.
